Reference: ChEMBL document CHEMBL3817837, “Targeting epigenetic reader and eraser: Rational design, synthesis and in vitro evaluation of dimethylisoxazoles derivatives as BRD4/HDAC dual inhibitors” (Bioorg Med Chem Lett, 2016)

Key:
[1] = molecular target: Histone deacetylase 1 (Homo sapiens, UniProt Q13547); test: Inhibition of recombinant HDAC1 (unknown origin) using of Fluor-de-Lys substrate incubated for 10 mins by fluorimetric assay
[2] = molecular target: T1, Bromodomain-containing protein 4 (Homo sapiens, UniProt O60885); test: Inhibition of human BRD4 expressed in Escherichia coli BL21(DE3)-R3-pRARE2 by bromodomain alphascreen peptide displacement assay
[3] = molecular target: T2, Bromodomain-containing protein 9 (Homo sapiens) (UniProt Q9H8M2); test: Binding affinity to human BRD9 expressed in Escherichia coli BL21(DE3)-R3-pRARE2 assessed as change in melting temperature at 25 uM by SYPRO orange based protein stability shift assay
T2 sequence (whole entry): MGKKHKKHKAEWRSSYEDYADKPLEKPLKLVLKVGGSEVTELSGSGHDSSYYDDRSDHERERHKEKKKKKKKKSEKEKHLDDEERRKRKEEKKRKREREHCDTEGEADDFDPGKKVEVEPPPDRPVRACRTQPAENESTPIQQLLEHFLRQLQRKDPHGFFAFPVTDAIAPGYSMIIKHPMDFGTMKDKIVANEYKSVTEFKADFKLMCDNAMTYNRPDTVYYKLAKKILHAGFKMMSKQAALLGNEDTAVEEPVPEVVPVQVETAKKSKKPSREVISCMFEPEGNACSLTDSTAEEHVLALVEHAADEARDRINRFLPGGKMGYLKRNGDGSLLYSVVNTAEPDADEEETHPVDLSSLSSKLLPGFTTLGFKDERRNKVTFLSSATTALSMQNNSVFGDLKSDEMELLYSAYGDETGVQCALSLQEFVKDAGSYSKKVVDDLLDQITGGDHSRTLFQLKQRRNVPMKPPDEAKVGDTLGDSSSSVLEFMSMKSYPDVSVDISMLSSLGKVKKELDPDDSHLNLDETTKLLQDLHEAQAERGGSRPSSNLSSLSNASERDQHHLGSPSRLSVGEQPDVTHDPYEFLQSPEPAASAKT

[4] = molecular target: Chromatin remodeling regulator CECR2 (Homo sapiens) (UniProt Q9BXF3); test: Binding affinity to human CECR2 expressed in Escherichia coli BL21(DE3)-R3-pRARE2 assessed as change in melting temperature at 25 uM by SYPRO orange based protein stability shift assay
[5] = molecular target: CREB-binding protein (Homo sapiens) (UniProt Q92793); test: Binding affinity to human CREBBP expressed in Escherichia coli BL21(DE3)-R3-pRARE2 assessed as change in melting temperature at 25 uM by SYPRO orange based protein stability shift assay
CREB-binding protein (Homo sapiens), sequence (Q92793 2-2442 limits assumed): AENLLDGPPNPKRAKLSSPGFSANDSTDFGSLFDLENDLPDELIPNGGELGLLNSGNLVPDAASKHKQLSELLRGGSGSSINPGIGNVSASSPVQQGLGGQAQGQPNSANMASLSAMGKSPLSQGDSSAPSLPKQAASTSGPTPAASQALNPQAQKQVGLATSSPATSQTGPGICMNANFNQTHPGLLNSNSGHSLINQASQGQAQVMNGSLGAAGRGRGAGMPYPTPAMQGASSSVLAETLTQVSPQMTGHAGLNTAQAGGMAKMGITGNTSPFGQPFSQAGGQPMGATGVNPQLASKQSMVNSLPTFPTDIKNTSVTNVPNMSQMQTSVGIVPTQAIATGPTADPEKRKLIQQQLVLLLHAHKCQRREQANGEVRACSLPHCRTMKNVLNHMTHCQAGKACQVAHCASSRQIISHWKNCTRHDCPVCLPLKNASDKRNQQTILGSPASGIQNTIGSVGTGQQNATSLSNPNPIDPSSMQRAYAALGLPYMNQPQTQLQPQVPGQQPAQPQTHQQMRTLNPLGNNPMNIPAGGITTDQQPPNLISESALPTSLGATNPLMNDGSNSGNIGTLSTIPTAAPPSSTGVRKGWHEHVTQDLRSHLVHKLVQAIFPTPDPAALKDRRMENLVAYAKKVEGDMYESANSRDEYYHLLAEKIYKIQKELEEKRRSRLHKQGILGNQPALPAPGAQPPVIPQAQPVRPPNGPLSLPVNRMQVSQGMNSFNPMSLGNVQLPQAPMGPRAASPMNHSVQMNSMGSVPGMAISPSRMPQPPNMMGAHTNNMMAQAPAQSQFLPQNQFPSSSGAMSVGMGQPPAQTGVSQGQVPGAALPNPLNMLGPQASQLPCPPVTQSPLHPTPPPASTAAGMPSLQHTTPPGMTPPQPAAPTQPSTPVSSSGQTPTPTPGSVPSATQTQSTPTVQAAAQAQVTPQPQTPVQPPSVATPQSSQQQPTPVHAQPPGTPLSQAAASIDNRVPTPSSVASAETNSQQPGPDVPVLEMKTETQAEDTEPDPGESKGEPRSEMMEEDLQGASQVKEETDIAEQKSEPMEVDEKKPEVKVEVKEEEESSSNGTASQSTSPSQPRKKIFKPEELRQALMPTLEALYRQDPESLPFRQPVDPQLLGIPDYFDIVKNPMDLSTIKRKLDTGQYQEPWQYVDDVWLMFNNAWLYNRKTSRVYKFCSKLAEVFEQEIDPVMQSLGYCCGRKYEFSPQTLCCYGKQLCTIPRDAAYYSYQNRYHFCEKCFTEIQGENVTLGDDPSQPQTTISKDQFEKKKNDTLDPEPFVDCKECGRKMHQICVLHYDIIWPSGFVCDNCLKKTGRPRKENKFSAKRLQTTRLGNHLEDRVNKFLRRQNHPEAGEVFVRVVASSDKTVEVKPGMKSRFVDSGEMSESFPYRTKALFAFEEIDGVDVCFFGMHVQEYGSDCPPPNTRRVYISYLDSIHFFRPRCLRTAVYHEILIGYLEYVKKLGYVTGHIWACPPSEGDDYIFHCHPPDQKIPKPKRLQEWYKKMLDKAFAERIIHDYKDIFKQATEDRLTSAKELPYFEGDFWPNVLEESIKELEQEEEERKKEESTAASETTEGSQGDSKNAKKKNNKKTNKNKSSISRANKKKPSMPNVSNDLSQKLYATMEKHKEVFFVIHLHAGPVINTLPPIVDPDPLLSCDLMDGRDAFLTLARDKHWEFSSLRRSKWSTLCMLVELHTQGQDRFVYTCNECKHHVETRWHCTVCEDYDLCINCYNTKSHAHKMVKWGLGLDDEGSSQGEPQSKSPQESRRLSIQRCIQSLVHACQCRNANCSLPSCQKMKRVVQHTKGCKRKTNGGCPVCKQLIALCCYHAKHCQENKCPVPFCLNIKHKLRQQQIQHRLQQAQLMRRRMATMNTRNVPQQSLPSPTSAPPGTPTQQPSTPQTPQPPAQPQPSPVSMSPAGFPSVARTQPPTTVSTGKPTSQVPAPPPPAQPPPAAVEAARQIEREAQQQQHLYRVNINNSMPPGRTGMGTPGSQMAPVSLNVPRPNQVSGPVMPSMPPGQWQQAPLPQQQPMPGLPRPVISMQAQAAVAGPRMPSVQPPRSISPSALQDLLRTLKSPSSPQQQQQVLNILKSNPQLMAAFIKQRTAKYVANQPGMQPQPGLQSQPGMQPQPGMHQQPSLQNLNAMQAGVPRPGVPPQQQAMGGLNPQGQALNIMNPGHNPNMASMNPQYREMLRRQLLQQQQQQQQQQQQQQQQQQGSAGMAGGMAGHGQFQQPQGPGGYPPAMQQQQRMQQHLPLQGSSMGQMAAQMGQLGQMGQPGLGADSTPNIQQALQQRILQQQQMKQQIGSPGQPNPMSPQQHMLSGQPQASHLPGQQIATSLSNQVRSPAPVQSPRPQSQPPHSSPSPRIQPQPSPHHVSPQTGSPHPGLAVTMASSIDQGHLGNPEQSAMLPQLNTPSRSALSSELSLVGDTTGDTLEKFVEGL

[6] = molecular target: Histone acetyltransferase KAT2B (Homo sapiens) (UniProt Q92831); test: Binding affinity to human PCAF expressed in Escherichia coli BL21(DE3)-R3-pRARE2 assessed as change in melting temperature at 25 uM by SYPRO orange based protein stability shift assay
Histone acetyltransferase KAT2B (Homo sapiens), sequence (Q92831 whole entry, looked up): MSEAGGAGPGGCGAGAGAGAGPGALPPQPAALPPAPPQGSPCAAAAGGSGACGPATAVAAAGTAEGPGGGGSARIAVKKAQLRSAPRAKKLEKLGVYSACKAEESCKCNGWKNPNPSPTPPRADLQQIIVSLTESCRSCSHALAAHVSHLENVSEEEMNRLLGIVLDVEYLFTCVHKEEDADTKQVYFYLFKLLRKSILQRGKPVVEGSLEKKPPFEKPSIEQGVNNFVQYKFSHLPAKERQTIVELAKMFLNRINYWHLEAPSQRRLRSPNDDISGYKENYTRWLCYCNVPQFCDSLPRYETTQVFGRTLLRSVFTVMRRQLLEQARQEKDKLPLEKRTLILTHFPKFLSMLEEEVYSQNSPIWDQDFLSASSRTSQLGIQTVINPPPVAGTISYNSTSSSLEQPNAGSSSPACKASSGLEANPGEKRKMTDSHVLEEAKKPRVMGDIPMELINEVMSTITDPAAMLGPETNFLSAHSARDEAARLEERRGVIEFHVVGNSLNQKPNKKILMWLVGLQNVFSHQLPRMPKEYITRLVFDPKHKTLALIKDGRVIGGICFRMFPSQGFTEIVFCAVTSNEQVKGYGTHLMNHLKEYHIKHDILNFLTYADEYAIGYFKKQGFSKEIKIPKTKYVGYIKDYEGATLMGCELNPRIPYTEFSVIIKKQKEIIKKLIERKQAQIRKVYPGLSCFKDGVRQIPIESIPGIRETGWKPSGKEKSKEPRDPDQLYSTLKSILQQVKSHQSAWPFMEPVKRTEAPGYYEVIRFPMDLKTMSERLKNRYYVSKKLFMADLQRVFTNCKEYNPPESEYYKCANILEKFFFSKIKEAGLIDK

[7] = molecular target: Transcription initiation factor TFIID subunit 1 (Homo sapiens) (UniProt P21675); test: Binding affinity to human TAF1 expressed in Escherichia coli BL21(DE3)-R3-pRARE2 assessed as change in melting temperature at 25 uM by SYPRO orange based protein stability shift assay
[8] = molecular target: T1, Bromodomain-containing protein 4
Description: Binding affinity to human BRD4 expressed in Escherichia coli BL21(DE3)-R3-pRARE2 assessed as change in melting temperature at 25 uM by SYPRO orange based protein stability shift assay

[9] = test system: K562; test: Antiproliferative activity against human K562 cells assessed as reduction in cell viability incubated for 72 hrs by Alamar blue assay; format: functional, cell-based; settings: K562, 72 h
[10] = test system: MV4-11; test: Antiproliferative activity against human MV4-11 cells assessed as reduction in cell viability incubated for 72 hrs by Alamar blue assay; format: functional, cell-based; settings: MV4-11, 72 h

Histone deacetylase 1, sequence (Q13547 whole entry): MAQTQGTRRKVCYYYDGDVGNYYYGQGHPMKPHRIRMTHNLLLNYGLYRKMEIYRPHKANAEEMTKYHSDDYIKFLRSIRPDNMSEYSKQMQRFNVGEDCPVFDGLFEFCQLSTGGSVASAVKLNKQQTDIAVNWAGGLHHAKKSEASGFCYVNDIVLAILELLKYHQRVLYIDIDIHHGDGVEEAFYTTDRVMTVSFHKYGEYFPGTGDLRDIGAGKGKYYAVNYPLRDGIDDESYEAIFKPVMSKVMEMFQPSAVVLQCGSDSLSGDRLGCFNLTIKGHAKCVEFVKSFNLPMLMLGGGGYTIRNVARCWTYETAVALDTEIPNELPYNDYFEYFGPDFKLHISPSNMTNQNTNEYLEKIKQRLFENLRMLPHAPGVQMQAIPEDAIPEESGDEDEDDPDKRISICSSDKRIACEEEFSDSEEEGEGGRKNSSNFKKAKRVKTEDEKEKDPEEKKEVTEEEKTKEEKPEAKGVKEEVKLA

Compound | IC50 [1] | IC50 [2] | ΔTm [3] | ΔTm [4] | ΔTm [5] | ΔTm [6] | ΔTm [7] | ΔTm [8] | IC50 [9] | IC50 [10]
Cc1noc(C)c1-c1cccc(NC(=O)CCCCCC(=O)NO)c1 | 360 nM | 3730 nM | -0.13 °C | 0.64 °C | 0.73 °C | 0.05 °C | 1.08 °C | 3.58 °C | – | –
Cc1noc(C)c1-c1cc(OCCCCCC(=O)NO)cc(C(=O)c2ccccc2)c1 | 1490 nM | 1380 nM | 1.56 °C | 1.18 °C | 1.69 °C | 0.28 °C | 1.69 °C | 7.54 °C | – | –
Cc1noc(C)c1-c1cc(NC(=O)CCCCCC(=O)NO)cc(C(=O)c2ccccc2)c1 | 270 nM | 850 nM | 2.26 °C | 1.52 °C | 2.32 °C | 0.92 °C | 1.76 °C | 6.37 °C | 2330 nM | 1040 nM
Cc1noc(C)c1-c1cc(NC(=O)CCCCCCC(=O)NO)cc(C(=O)c2ccccc2)c1 | 150 nM | 670 nM | 2.97 °C | 1.96 °C | 3.24 °C | 1.35 °C | 2.22 °C | 7.49 °C | 1860 nM | 910 nM
Cc1noc(C)c1-c1cc(OCCCCCCCC(=O)NO)cc(C(=O)c2ccccc2)c1 | 1740 nM | 2990 nM | 1.22 °C | 2.06 °C | 0.65 °C | -0.31 °C | 1.77 °C | 4.91 °C | – | –
Cc1noc(C)c1-c1cc(OCCCCCCC(=O)NO)cc(C(O)c2ccccc2)c1 (configuration not stated) | 970 nM | 770 nM | 1.55 °C | 1.32 °C | 4.03 °C | 0.35 °C | 1.72 °C | 7.53 °C | – | –
Cc1noc(C)c1-c1cc(OCCCCCCC(=O)NO)cc(C(=O)c2ccccc2)c1 | 1430 nM | 1050 nM | 1.72 °C | – | 2.13 °C | 1.04 °C | 2.22 °C | 7.41 °C | – | –
Cc1noc(C)c1-c1cc(OCCCCC(=O)NO)cc(C(=O)c2ccccc2)c1 | 5450 nM | 1490 nM | -0.75 °C | – | -0.01 °C | -7.9 °C | 1.14 °C | 5.89 °C | – | –
Cc1sc2c(c1C)C(c1ccc(Cl)cc1)=N[C@@H](CC(=O)OC(C)(C)C)c1nnc(C)n1-2 (racemic) | – | – | – | – | – | – | – | – | 640 nM | 240 nM
Cc1noc(C)c1-c1cc(NC(=O)CCCCC(=O)NO)cc(C(=O)c2ccccc2)c1 | 760 nM | 780 nM | 2.79 °C | 1.65 °C | 2.05 °C | 0.31 °C | 1.95 °C | 6.21 °C | – | –
O=C(CCCCCCC(=O)Nc1ccccc1)NO [VORINOSTAT] | – | – | – | – | – | – | – | – | 170 nM | –
